Test results taken from US20110039721A1, “METHOD FOR PREDICTION ABOUT CARCINOGENICITY OF SUBSTANCE IN RODENT” (Chemicals Evaluation and Research Institute, priority 2007, published 2011).

Tests used:
[1] = test system: mRNA expressed from the genes (A) to (D) in rat liver; test: Behavior of genes (mRNA expression level, oligo-DNA microarray) in rat liver after 28-day oral administration; format: in vivo
Outline: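 Groups of four male F344 SPF rats aged 5 weeks are gavaged once a day for 28 days with test chemical in solvent or with solvent alone at equal volume. Total RNA comes from liver taken on day 28. Fold change of 1.5 or 1/1.5 versus control, directionally consistent, defines significance.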

liver = settings: classification Cr+/Cr−; cited from earlier work
rodent = settings: classification C+/C−; cited from earlier work
[2] = classification M+/M−; cited from earlier work

C=CCc1ccc(OC)c(OC)c1 [TS086, Methyleugenol]
−: Behavior of gene caused by administration of chemical substance ([1]; Gene No. 154, Rn.185941, group (C)) | Behavior of gene caused by administration of chemical substance ([1]; Gene No. 725, Rn.108075, group (C)) | Behavior of gene caused by administration of chemical substance ([1]; Gene No. 813, Rn.201760, group (C)) | Behavior of gene caused by administration of chemical substance ([1]; Gene No. 893, Rn.164817, group (C)) | Behavior of gene caused by administration of chemical substance ([1]; Gene No. 1119, Rn.9757, group (C)) | Behavior of gene caused by administration of chemical substance ([1]; Gene No. 1131, Rn.144946, group (C)) | Behavior of gene caused by administration of chemical substance ([1]; Gene No. 1163, Rn.11766, group (C)) | Behavior of gene caused by administration of chemical substance ([1]; Gene No. 1334, Rn.120914, group (C)) | Behavior of gene caused by administration of chemical substance ([1]; Gene No. 1494, Rn.1430, group (B)) | Behavior of gene caused by administration of chemical substance ([1]; Gene No. 1562, Rn.14744, group (C)) | Behavior of gene caused by administration of chemical substance ([1]; Gene No. 1741, Rn.1647, group (C)) | Behavior of gene caused by administration of chemical substance ([1]; Gene No. 1993, Rn.18728, group (C)) | Behavior of gene caused by administration of chemical substance ([1]; Gene No. 2026, Rn.167075, group (A)) | Behavior of gene caused by administration of chemical substance ([1]; Gene No. 2045, Rn.19329, group (B)) | Behavior of gene caused by administration of chemical substance ([1]; Gene No. 2203, Rn.21240, group (B)) | Behavior of gene caused by administration of chemical substance ([1]; Gene No. 2494, Rn.23969, group (C)) | Behavior of gene caused by administration of chemical substance ([1]; Gene No. 2546, Rn.24561, group (C)) | Behavior of gene caused by administration of chemical substance ([1]; Gene No. 3776, Rn.43232, group (C)) | Behavior of gene caused by administration of chemical substance ([1]; Gene No. 3929, Rn.4620, group (C)) | Behavior of gene caused by administration of chemical substance ([1]; Gene No. 4095, Rn.119024, group (C)) | Behavior of gene caused by administration of chemical substance ([1]; Gene No. 4218, Rn.167075, group (A)) | Behavior of gene caused by administration of chemical substance ([1]; Gene No. 4973, Rn.118529, group (C)) | Behavior of gene caused by administration of chemical substance ([1]; Gene No. 5634, Rn.9862, group (C)) | Behavior of gene caused by administration of chemical substance ([1]; Gene No. 5726, Rn.9939, group (D)) | Behavior of gene caused by administration of chemical substance ([1]; Gene No. 5878, Rn.143213, group (C)) | Behavior of gene caused by administration of chemical substance ([1]; Gene No. 6026, Rn.167685, group (C)) | Behavior of gene caused by administration of chemical substance ([1]; Gene No. 6303, Rn.123063, group (C)) | Behavior of gene caused by administration of chemical substance ([1]; Gene No. 6620, Rn.120914, group (C)) | Behavior of gene caused by administration of chemical substance ([1]; Gene No. 6742, Rn.9779, group (C))
M−: Mutagenicity by Ames test [2]
+: Behavior of gene caused by administration of chemical substance ([1]; Gene No. 533, Rn.106184, group (C)) | Behavior of gene caused by administration of chemical substance ([1]; Gene No. 4846, Rn.144554, group (A)) | Behavior of gene caused by administration of chemical substance ([1]; Gene No. 5600, Rn.9836, group (A)) | Behavior of gene caused by administration of chemical substance ([1]; Gene No. 6182, Rn.5834, group (A))
Cr+: Liver carcinogenicity (liver)
C+: Carcinogenicity (rodent)
